For orientation: Ki means a dissociation constant, usually derived from enzyme kinetics or from competition with a known ligand.

Structures are written as SMILES. The source made the active and inactive calls. The calls are words filed in the database; no cut-off is given here. Where a SMILES comes first, the peptide text is derived from it. The star is where a group is joined. CF3 = FC(F)(F)*

The target in one experiment is Chymotrypsinogen A (Bos taurus, UniProt P00766). The experiment in a line: Inhibitory activity against alpha chymotrypsin from bovine pancreas.
The molecule `NC(=O)c1ccc2oc(C(=O)C(Cc3ccccc3)NC(=O)Cn3c(-c4ccc(F)cc4)ncc(N)c3=O)nc2c1` (centres undefined) yielded an inhibition constant Ki of 53.4 nM.
In turn, `COC(=O)c1ccc2nc(C(=O)C(Cc3ccccc3)NC(=O)Cn3c(-c4ccc(F)cc4)ncc(N)c3=O)oc2c1` (centres undefined) had a Ki of 71.3 nM.
Molecule `Nc1cnc(-c2ccc(F)cc2)n(CC(=O)NC(Cc2ccccc2)C(=O)c2nc3ncccc3o2)c1=O` (centres undefined) displayed an inhibitory constant (Ki) of 60.5 nM.
Still for that read-out and setting: to `CC(C)[C@H](N)C(=O)N1CCC[C@H]1C(=O)N[C@@H](Cc1ccccc1)C(=O)C(F)(F)F` (H-Val-Pro-Phe-CF3) belongs 4400 nM; to `Nc1cnc(-c2ccc(F)cc2)n(CC(=O)NC(Cc2ccccc2)C(=O)c2nc3cc(C(=O)O)ccc3o2)c1=O` (centres undefined), 133 nM.
Consider `Nc1ccc2oc(C(=O)C(Cc3ccccc3)NC(=O)Cn3c(-c4ccc(F)cc4)ncc(N)c3=O)nc2c1` (centres undefined), for which affinity was put at a Ki of 60 nM.
`COC(=O)c1ccc2oc(C(=O)C(Cc3ccccc3)NC(=O)Cn3c(-c4cccc(F)c4)ncc(N)c3=O)nc2c1` (centres undefined) registered an inhibition constant Ki of 1770 nM.
Same read-out and setting: as for `COC(=O)c1ccc2oc(C(=O)C(Cc3ccccc3)NC(=O)Cn3c(-c4ccc(F)cc4)ncc(N)c3=O)nc2c1` (centres undefined), the figure is 52.9 nM.
For the molecule `CCN(CC)C(=O)c1ccc2oc(C(=O)C(Cc3ccccc3)NC(=O)Cn3c(-c4ccc(F)cc4)ncc(N)c3=O)nc2c1` (centres undefined), affinity was put at a Ki of 23.3 nM.

For another experiment, the target named is T1, Neutrophil elastase (Homo sapiens) (UniProt P08246).
T1 sequence (whole entry): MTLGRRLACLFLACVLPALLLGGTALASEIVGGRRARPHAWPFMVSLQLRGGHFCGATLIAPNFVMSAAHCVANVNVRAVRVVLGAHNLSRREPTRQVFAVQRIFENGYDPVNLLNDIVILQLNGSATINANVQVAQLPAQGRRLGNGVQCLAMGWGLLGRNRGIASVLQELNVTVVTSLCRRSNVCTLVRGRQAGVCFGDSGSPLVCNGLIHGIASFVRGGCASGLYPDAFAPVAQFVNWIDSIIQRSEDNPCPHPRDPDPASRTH
The experiment in a line: Inhibitory activity against human leukocyte elastase (10 uM); No inhibition.
Regarding `COC(=O)c1ccc2oc(C(=O)C(Cc3ccccc3)NC(=O)Cn3c(-c4ccc(F)cc4)ncc(N)c3=O)nc2c1` (centres undefined), the NA result is “inactive”.

The target in a further experiment is T2, Chymase (Homo sapiens, UniProt P23946).
T2 sequence (P23946 whole entry): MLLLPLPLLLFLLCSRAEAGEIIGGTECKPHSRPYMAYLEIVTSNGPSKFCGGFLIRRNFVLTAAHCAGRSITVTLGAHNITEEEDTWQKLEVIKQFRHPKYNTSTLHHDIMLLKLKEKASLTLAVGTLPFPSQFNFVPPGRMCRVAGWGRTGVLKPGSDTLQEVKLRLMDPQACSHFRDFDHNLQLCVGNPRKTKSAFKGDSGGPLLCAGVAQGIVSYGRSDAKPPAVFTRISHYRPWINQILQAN
As to the kind of experiment: inhibitory activity was evaluated against chymase from human heart.
`Nc1cnc(-c2ccc(F)cc2)n(CC(=O)NC(Cc2ccccc2)C(=O)c2nc3cc(-c4ccccc4)ccc3o2)c1=O` (centres undefined) gave an inhibitory constant (Ki) of 174 nM.
Still for that read-out and setting: to `CC(C)C[C@H](NC(=O)[C@@H](NC(=O)N[C@@H](Cc1ccccc1)C(=O)O)C1CCN=C(N)N1)C(=O)N[C@H](C=O)Cc1ccccc1` (some centres undefined) [CHYMOSTATIN] belongs 13.1 nM.

In a further experiment the target is T3, Chymase (Rattus norvegicus, UniProt P50339).
T3 sequence (P50339 whole entry): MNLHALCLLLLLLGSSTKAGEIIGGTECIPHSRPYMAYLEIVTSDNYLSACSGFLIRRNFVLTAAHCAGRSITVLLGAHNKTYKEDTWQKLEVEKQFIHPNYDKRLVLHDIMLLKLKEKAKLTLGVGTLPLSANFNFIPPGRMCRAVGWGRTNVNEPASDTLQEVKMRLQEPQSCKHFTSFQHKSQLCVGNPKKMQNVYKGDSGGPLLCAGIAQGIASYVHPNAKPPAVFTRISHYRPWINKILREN
The experiment in a line: Inhibitory activity against rat peritoneal chymase.
Molecule `COC(=O)c1ccc2oc(C(=O)C(Cc3ccccc3)NC(=O)Cn3c(-c4ccc(F)cc4)ncc(N)c3=O)nc2c1` (centres undefined) came in with a Ki of 103 nM.

A further experiment has as its target T4, Cathepsin G (Homo sapiens, UniProt P08311).
T4 sequence (P08311 whole entry): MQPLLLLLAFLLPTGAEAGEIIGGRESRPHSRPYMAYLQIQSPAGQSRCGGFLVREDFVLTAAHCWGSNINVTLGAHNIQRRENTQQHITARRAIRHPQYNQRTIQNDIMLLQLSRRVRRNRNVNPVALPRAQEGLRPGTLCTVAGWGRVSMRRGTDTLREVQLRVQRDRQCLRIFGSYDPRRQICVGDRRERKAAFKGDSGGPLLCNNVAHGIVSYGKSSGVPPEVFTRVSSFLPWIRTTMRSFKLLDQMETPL
As to the kind of experiment: Inhibitory activity against human cathepsin G.
With `COC(=O)c1ccc2oc(C(=O)C(Cc3ccccc3)NC(=O)Cn3c(-c4ccc(F)cc4)ncc(N)c3=O)nc2c1` (centres undefined), the Ki is 720 nM.

In another experiment the target is T5, Mast cell protease 9 (Mus musculus, UniProt O35164).
T5 sequence (O35164 whole entry): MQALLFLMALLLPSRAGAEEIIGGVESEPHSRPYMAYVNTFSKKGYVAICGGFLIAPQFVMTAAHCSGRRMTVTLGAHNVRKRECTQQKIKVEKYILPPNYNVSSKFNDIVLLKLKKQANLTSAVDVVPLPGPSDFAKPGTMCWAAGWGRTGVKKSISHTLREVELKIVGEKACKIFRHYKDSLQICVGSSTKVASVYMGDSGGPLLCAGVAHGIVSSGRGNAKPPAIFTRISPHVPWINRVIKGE
The experiment in a line: Inhibitory activity against mouse peritoneal chymase.
`COC(=O)c1ccc2oc(C(=O)C(Cc3ccccc3)NC(=O)Cn3c(-c4ccc(F)cc4)ncc(N)c3=O)nc2c1` (centres undefined) registered an inhibition constant Ki of 40.4 nM.

The target in a further experiment is Prothrombin (Homo sapiens) (UniProt P00734). As to the kind of experiment: Inhibitory activity against human plasma thrombin (10 uM); No inhibition. It is filed as cell-free.
As to `COC(=O)c1ccc2oc(C(=O)C(Cc3ccccc3)NC(=O)Cn3c(-c4ccc(F)cc4)ncc(N)c3=O)nc2c1` (centres undefined), the NA result was “inactive”.

The target of the next experiment is T2, Chymase. As to the kind of experiment: Inhibitory activity evaluated against chymase from human heart.
Molecule `NC(=O)c1ccc2oc(C(=O)C(Cc3ccccc3)NC(=O)Cn3c(-c4ccc(F)cc4)ncc(N)c3=O)nc2c1` (centres undefined) came in with an inhibition constant Ki of 94 nM.
In turn, `Nc1cnc(-c2ccc(F)cc2)n(CC(=O)NC(Cc2ccccc2)C(=O)c2nc3ncccc3o2)c1=O` (centres undefined) displayed an inhibition constant (Ki) of 60.6 nM.
Consider `CC(C)[C@H](N)C(=O)N1CCC[C@H]1C(=O)N[C@@H](Cc1ccccc1)C(=O)C(F)(F)F` (H-Val-Pro-Phe-CF3), for which the affinity corresponds to a Ki of 82.1 nM.
Same read-out and setting: as for `COC(=O)c1ccc2oc(C(=O)C(Cc3ccccc3)NC(=O)Cn3c(-c4cccc(F)c4)ncc(N)c3=O)nc2c1` (centres undefined), the figure is 14.3 nM; as for `COC(=O)c1ccc2oc(C(=O)C(Cc3ccccc3)NC(=O)Cn3c(-c4ccc(F)cc4)ncc(N)c3=O)nc2c1` (centres undefined), 22.6 nM.
Still for that read-out and setting: as for `CCN(CC)C(=O)c1ccc2oc(C(=O)C(Cc3ccccc3)NC(=O)Cn3c(-c4ccc(F)cc4)ncc(N)c3=O)nc2c1` (centres undefined), the figure is 59.5 nM.

The target of another experiment is Angiotensin-converting enzyme (Homo sapiens) (UniProt P12821). As to the kind of experiment: Inhibitory activity against human angiotensin I converting enzyme (10 uM); No inhibition.
Chain of Angiotensin-converting enzyme (Homo sapiens) (P12821 whole entry): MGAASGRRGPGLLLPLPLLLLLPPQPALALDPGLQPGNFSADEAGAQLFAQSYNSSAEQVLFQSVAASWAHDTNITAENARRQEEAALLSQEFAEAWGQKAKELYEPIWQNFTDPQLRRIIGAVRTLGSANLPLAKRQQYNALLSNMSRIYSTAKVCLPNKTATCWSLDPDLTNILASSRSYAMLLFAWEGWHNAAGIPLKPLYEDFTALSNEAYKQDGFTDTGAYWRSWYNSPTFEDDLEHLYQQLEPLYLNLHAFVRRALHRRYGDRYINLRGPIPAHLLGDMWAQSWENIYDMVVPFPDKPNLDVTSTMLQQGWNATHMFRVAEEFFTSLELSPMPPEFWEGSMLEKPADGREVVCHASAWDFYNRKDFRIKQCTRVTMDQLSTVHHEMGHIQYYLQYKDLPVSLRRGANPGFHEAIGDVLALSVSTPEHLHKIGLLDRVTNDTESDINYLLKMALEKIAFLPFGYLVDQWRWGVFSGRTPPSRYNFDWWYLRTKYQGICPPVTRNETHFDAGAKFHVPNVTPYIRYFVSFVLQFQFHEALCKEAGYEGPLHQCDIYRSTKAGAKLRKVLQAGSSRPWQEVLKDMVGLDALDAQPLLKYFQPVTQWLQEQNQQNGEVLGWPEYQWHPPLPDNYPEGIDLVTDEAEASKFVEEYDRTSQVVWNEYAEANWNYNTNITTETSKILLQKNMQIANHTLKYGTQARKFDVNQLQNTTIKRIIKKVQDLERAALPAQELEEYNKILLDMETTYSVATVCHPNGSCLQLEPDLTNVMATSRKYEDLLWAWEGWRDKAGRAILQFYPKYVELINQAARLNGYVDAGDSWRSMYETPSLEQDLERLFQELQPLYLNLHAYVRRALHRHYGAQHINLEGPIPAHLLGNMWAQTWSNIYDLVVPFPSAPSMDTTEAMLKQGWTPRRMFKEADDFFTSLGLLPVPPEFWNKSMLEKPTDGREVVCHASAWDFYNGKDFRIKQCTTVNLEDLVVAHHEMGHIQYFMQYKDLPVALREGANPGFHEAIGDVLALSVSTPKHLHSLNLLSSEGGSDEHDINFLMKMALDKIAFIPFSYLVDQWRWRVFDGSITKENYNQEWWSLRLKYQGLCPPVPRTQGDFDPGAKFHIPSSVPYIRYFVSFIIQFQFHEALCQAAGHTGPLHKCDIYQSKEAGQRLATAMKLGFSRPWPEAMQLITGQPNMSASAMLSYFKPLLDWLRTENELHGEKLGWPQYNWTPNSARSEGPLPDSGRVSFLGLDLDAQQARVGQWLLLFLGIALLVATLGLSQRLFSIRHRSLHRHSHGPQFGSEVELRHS
With `COC(=O)c1ccc2oc(C(=O)C(Cc3ccccc3)NC(=O)Cn3c(-c4ccc(F)cc4)ncc(N)c3=O)nc2c1` (centres undefined), the NA entry was “inactive”.

For the next experiment, the target named is T2, Chymase.
`COC(=O)c1ccc2oc(C(=O)C(Cc3ccccc3)NC(=O)Cn3c(-c4ccc(F)cc4)ncc(N)c3=O)nc2c1` (centres undefined) had an inhibition constant (Ki) of 3.68 nM.

The values are drawn from ChEMBL document CHEMBL1134397, “Synthesis, structure-activity relationships, and pharmacokinetic profiles of nonpeptidic alpha-keto heterocycles as novel inhibitors of human chymase” (J Med Chem, 2001).
